In patent publication US20220296566A1, “COMBINATION PRODUCT CONTAINING LIMONOID COMPOUND AND ALPHA-GLUCOSIDASE INHIBITOR” (ZHEJIANG YANGSHENGTANG INSTITUTE OF NATURAL MEDICATION CO., …, priority 2019, published 2022):

Columns and labels:
Assay type in all cases: in vivo
[1] = system: db/db mice; assay: Blood glucose in mouse type II diabetes model, db/db mice (Example 2); details: single agent 0.04 g/kg per day by gavage, two weeks, 1 h after last administration, mean ± SD
Source text: (§1) Effects of limonoid compound, acarbose or combination thereof on blood glucose and leptin in mouse type II diabetes model
(§2) In the present example, db/db mice (line name BKS.Cg-Dock7^m+/+Lepr^db/Nju) were used to perform hypoglycemic efficacy evaluation test of animals (blood glucose level and leptin). The limonoid compound was selected from obacunone, isoobacunoic acid and obacunone glycoside, and acarbose single administration group, obacunone single administration group, isoobacunoic acid single administration group, obacunone glycoside single administered group, and respective combination thereof with acarbose administration groups were set.
(§3) Conditions for experimental feeding: as type II diabetes model mice, 6-week-old SPF-grade db/db mice were purchased from the Nanjing Model Biology Institute, and subjected to experimental feeding after 7 days of preliminary feeding. It should be noted that the conditions for raising the mice were as follows: the temperature was 23±1° C., the humidity was 55±10%, the lights were turned on between 7 am and 7 pm (the lights were turned off at other time), and the mice were allowed to freely take in water and feed. […]

[2] = system: db/db mice; assay: Serum leptin by Elisa in db/db mice (Example 2); details: single agent 0.04 g/kg per day by gavage, two weeks, mean ± SD
Source text: as §1, §2, §3

[3] = system: db/db mice; assay: Blood glucose in mouse type II diabetes model, db/db mice (Example 4); details: single agent 0.2 g/kg per day by gavage, two weeks, 1 h after last administration, mean ± SD
Source text: (§4) Effects of limonoid compound, acarbose or combination thereof on blood glucose and insulin in mouse type II diabetes model
(§5) In the present embodiment, the limonoid compound was selected from nomilin, deacetylnomilin, nomilin acid, deacetylnomilin acid glycoside, and acarbose single administration group, nomilin single administration group, deacetylnomilin single administration group, nomilin acid single administered group, deacetylnomilin acid glycoside single administration group, and respective combination thereof with acarbose administration groups were set.
Conditions for experimental feeding: as type II diabetes model mice, 6-week-old SPF-grade db/db mice were purchased from the Nanjing Model Biology Institute, and subjected to experimental feeding after 7 days of preliminary feeding. […]
Gavage doses: nomilin at a dose of 0.2 g/kg was gavaged per day for the nomilin group, deacetylnomilin at a dose of 0.2 g/kg was gavaged per day for the deacetylnomilin group, nomilin acid at a dose of 0.2 g/kg was gavaged per day for the nomilin acid group, deacetylnomilin acid glycoside at a dose of 0.2 g/kg was gavaged per day for the deacetylnomilin acid glycoside group, acarbose at a dose of 0.2 g/kg was gavaged per day for the acarbose group, nomilin at a dose of 0.1 g/kg and acarbose at a dose of 0.1 g/kg were simultaneously gavaged per day for the nomilin combination group, nomilin acid at a dose of 0.1 g/kg and acarbose at a dose of 0.1 g/kg were simultaneously gavaged per day for the nomilin acid combination group, deacetylnomilin at a dose of 0.1 g/kg and acarbose at a dose of 0.1 g/kg were simultaneously gavaged per day for the deacetylnomilin combination group, deacetylnomilin acid glycoside at a dose of 0.1 g/kg and acarbose at a dose of 0.1 g/kg were simultaneously gavaged per day for the deacetylnomilin acid glycoside combination group, the gavage volume was 10 mL/kg, and the normal group and the model group were administrated with 10 mL/kg of distilled water. […] The data were expressed as mean and standard deviation. […]

[4] = system: db/db mice; assay: Serum insulin by Elisa in db/db mice (Example 4); details: single agent 0.2 g/kg per day by gavage, two weeks, mean ± SD
Source text: as §4, §5
as §3, with “feed. The experimental feed was mouse growth-stable feed (GB M2118), and the daily feeding and management of the animals were under the responsibility of the animal security department, which provided the animals with sufficient diet and fresh drinking water daily.” for “feed.”

SMILES: C[C@H]1O[C@H](O[C@H]2[C@H](O)[C@@H](O)[C@@H](O[C@H]3[C@H](O)[C@@H](O)C(O)O[C@@H]3CO)O[C@@H]2CO)[C@H](O)[C@@H](O)[C@@H]1N[C@H]1C=C(CO)[C@@H](O)[C@H](O)[C@H]1O (stereo partly shown) [Acarbose, acarbose]
- Blood glucose value [1]: 16.9 ± 4.0 mmol/L
- Leptin [2]: 35.57 ± 2.98 pg/mL
- Blood glucose value [3]: 13.6 ± 2.9 mmol/L
- Insulin [4]: 8.45 ± 2.21 pg/mL
